How the values were obtained:
[1] = tested on: ERα interaction with IGF-1Rβ, Shc, PI3K; Akt and MAPK phosphorylation; assay: Non-genomic activation route, immunoprecipitation/immunoblotting, MCF-7; assay type: cell-based, human
Method: MCF-7 cells were treated with the ERAP1-peptide. Then, immediately, the cells were stimulated with 10 nM E2 for 24 hours. Then, the cytoplasm fraction was immunoprecipitated with anti-ERα antibody. […] MCF-7 cells were treated with the ERAP1-peptide. Then, immediately, the cells were stimulated with 10 nM E2 for 24 hours. Then the cytoplasm fraction was immunoprecipitated with anti-ERα antibody or anti-PHB2 antibody.
FIG. 10-2 is a diagram illustrating that the ERAP1-peptide regulates E2-induced non-genomic activation route via IGF-1Rβ and Shc. […] BT-474 cells were treated with the ERAP1-peptide and/or E2 for 24 hours. Then, the cytoplasm fraction was immunoprecipitated with anti-ERα antibody.
As described in the item of “Western blotting analysis”, the cells were lysed with a 0.1% NP-40 lysis buffer. The cell lysate was precleaned using normal IgG and rec-Protein G Sepharose 4B (Zymed, San Francisco, Calif., USA) at 4° C. for 3 hours. After centrifuge separation, the supernatant was incubated in the presence of an anti-ERAP1 antibody, an anti-PHB2 antibody and an anti-ERα antibody at 4° C. for 6 hours. Then, the supernatant was incubated in the presence of rec-Protein G Sepharose 4B at 4° C. for 1 hour, to precipitate an antigen-antibody complex. The immunoprecipitated protein complex was washed with a lysis buffer three times, and separated by SDS-PAGE. Then, Western blotting analysis was performed by the method described previously (Kim J W, et al. Cancer Sci. 2009; 100: 1468-78.).

[2] = tested on: PHB2/REA (Ser39) phosphorylation; assay: Ser39 phosphorylation of PHB2/REA, MCF-7; assay type: cell-based, human; conditions: 10 μM
Method: FIG. 26-1 is a diagram illustrating the results of evaluations for the phosphorylation in nuclear-translocated Ser39 of PHB2/REA. […] MCF-7 cells were treated with 10 μM ERAP1-peptide. Then, immediately, the cells were stimulated with 10 nM E2 for 24 hours. The cells were fractionated into cytoplasm and nuclear fractions by specific gravity centrifugation. Then, each fraction was immunoprecipitated with anti-PHB2/REA antibody. Then, the cells were lysed. Then, the immunoprecipitated protein and the cell lysate were subjected to immunoblotting analysis with the antibodies shown in the figure. […] Then, immediately, the cells were temporally stimulated with 10 nM E2. Each cell lysate was subjected to immunoblotting analysis with an anti-PHB2/REA antibody and an anti-phosphorylation PHB2/REA (S39) antibody. […] MCF-7 cells were treated with the ERAP1-peptide and λ-phosphatase (400 U) in the presence of 10 nM E2 for 24 hours. After the immobilization, the cells were subjected to immunofluorescent staring. […]
MCF-7 cells were seeded in an 8-well chamber (Laboratory-Tek II Chamber Slide System, Nalgen Nunc International, Naperville, Ill., USA) in 5×10^4 cells/well, and cultured under estrogen-free condition for 24 hours. […] The fluorescence image was obtained under Olympus IX71 microscope (Tokyo, Japan).

Tam-R MCF-7 tumor = assay: In vivo antitumor effect, Tam-R MCF-7 orthotopic transplant; parameters: species or system BALB/c nude mouse; conditions: intraperitoneal every day, E2 6 μg/day, day 21
Excerpt: FIG. 27 is a diagram illustrating the inhibition effect of the ERAP1-peptide on tumor proliferation in a mouse orthotopically transplanted with human breast cancer. […] KPL-3 cells were subcutaneously transplanted into the breast fat body of a BALB/c nude mouse. The treatment test (5 individuals/group) was initiated (day 0) when the volume of the tumor reached about 50-80 mm^3 in the absence of E2. To a cancerous mouse orthotopically transplanted with KPL-3C tumor, the ERAP1-peptide (Peptide: 14 mg/kg) or the ERAP1-scramble peptide (scrPeptide: 14 mg/kg) was administered every day by intraperitoneal injection. At the same time, E2 (6 μg/day) was administered subcutaneously every day. On day 14, the mouse was euthanatized, and the tumor was removed, and phosphorylation of PHB2/REA (S39) in each tumor was evaluated with immunoblotting analysis. […] The tamoxifen-resistant MCF7-cells (Tam-R MCF-7) were subcutaneously transplanted into the breast fat body of a BALB/c nude mouse, and the treatment test (5 individuals/group) was initiated (day 0) when the volume of the tumor reached about 50-80 mm^3 in the presence of tamoxifen (37 ng/day, 1.85 μg/kg). To a cancerous mouse orthotopically transplanted with Tam-R MCF-7 tumor, the ERAP1-peptide (Peptide: 3.5, 7 and 14 mg/kg) or the ERAP1-scramble peptide (scrPeptide: 14 mg/kg) was administered every day by intraperitoneal injection. […]

SMILES: CSCC[C@H](NC(=O)[C@H](CCC(N)=O)NC(=O)[C@H](CCCNC(=N)N)NC(=O)[C@H](CCCNC(=N)N)NC(=O)[C@H](CCCNC(=N)N)NC(=O)[C@H](CCCNC(=N)N)NC(=O)[C@H](CCCNC(=N)N)NC(=O)[C@H](CCCNC(=N)N)NC(=O)[C@H](CCCNC(=N)N)NC(=O)[C@H](CCCNC(=N)N)NC(=O)[C@H](CCCNC(=N)N)NC(=O)[C@H](CCCNC(=N)N)NC(=O)[C@@H](N)CCCNC(=N)N)C(=O)N[C@@H](CC(C)C)C(=O)N[C@@H](CO)C(=O)N[C@@H](CC(=O)O)C(=O)N[C@@H](CC(C)C)C(=O)N[C@H](C(=O)N[C@@H](CC(C)C)C(=O)N[C@@H](CCC(N)=O)C(=O)N[C@@H](CC(C)C)C(=O)N[C@@H](CCCNC(=N)N)C(=O)N[C@@H](CCC(N)=O)C(=O)N[C@@H](CCCNC(=N)N)C(=O)O)[C@@H](C)O [ERAP1-peptide]
- binding of ERα and PI3K ([1]; cytoplasm fraction, 24 hours): inhibit the binding of ERα and PI3K
- binding of ERα and Shc and of ERα and IGF-1Rβ ([1]; cytoplasm fraction, 24 hours): inhibited the binding of ERα and Shc and the binding of ERα and IGF-1Rβ
- phosphorylation of Ser473 of Akt and phosphorylation of MAPK ([1]; time course to 24 hours): inhibited respectively within 3 hours after addition of the ERAP1-peptide, and the suppression was maintained even after 24 hours
- E2-dependent Ser phosphorylation of PHB2/REA, successive change ([2]; 10 nM E2): recognized continuously from 1 hour to 24 hours
- phosphorylation of Ser39 of nuclear-translocated PHB2/REA ([2]; 10 nM E2 24 hours): recognized for the phosphorylation of Ser39
- antitumor effect (tumor volume) (Tam-R MCF-7 tumor): The antitumor effect was recognized
